Assay results published in ChEMBL document CHEMBL4052645, “Discovery of potent and efficacious pyrrolopyridazines as dual JAK1/3 inhibitors” (Bioorg Med Chem Lett, 2017).

Key:
[1] = biological target: TRAF2 and NCK-interacting protein kinase (Homo sapiens) (UniProt Q9UKE5); assay: Inhibition of wild-type human partial length TNIK (D4 to K311 residues) expressed in bacterial expression system assessed as residual activity at 50 nM by Kinomescan method relative to control
[2] = biological target: Tyrosine-protein kinase Lck (Homo sapiens) (UniProt P06239); assay: Inhibition of wild-type human partial length LCK (R207 to P509 residues) expressed in bacterial expression system assessed as residual activity at 50 nM by Kinomescan method relative to control
[3] = biological target: Death-associated protein kinase 1 (Homo sapiens) (UniProt P53355); assay: Inhibition of wild-type human partial length DAPK1 (M1 to F296 residues) expressed in bacterial expression system assessed as residual activity at 50 nM by Kinomescan method relative to control
[4] = biological target: Serine/threonine-protein kinase 4 (Homo sapiens) (UniProt Q13043); assay: Inhibition of wild-type human full length MST1 (M1 to F487 residues) expressed in bacterial expression system assessed as residual activity at 50 nM by Kinomescan method relative to control
[5] = biological target: Tyrosine-protein kinase HCK (Homo sapiens) (UniProt P08631); assay: Inhibition of wild-type human full length HCK (M22 to P526 residues) expressed in bacterial expression system assessed as residual activity at 50 nM by Kinomescan method relative to control
[6] = biological target: Serine/threonine-protein kinase MAK (Homo sapiens) (UniProt P20794); assay: Inhibition of wild-type human partial length MAK (M1 to P314 residues) expressed in bacterial expression system assessed as residual activity at 50 nM by Kinomescan method relative to control
[7] = biological target: Ribosomal protein S6 kinase alpha-5 (Homo sapiens) (UniProt O75582); assay: Inhibition of wild-type human partial length N-terminal MSK1 kinase domain 1 expressed in bacterial expression system assessed as residual activity at 50 nM by Kinomescan method relative to control
[8] = biological target: Serine/threonine-protein kinase 10 (Homo sapiens) (UniProt O94804); assay: Inhibition of wild-type human partial length LOK (E16 to V314 residues) expressed in bacterial expression system assessed as residual activity at 50 nM by Kinomescan method relative to control
[9] = biological target: Insulin-like growth factor 1 receptor (Homo sapiens) (UniProt P08069); assay: Inhibition of wild-type human partial length IGF1R (L972 to D1294 residues) expressed in bacterial expression system assessed as residual activity at 50 nM by Kinomescan method relative to control
[10] = biological target: Dual specificity mitogen-activated protein kinase kinase 1 (Homo sapiens) (UniProt Q02750); assay: Inhibition of wild-type human full length MAP2K1 (M1 to V393 residues) expressed in mammalian expression system assessed as residual activity at 50 nM by Kinomescan method relative to control
[11] = biological target: Casein kinase I isoform gamma-1 (Homo sapiens) (UniProt Q9HCP0); assay: Inhibition of wild-type human partial length CK1G1 (T15 to S353 residues) expressed in bacterial expression system assessed as residual activity at 50 nM by Kinomescan method relative to control
[12] = biological target: Muscle, skeletal receptor tyrosine-protein kinase (Homo sapiens) (UniProt O15146); assay: Inhibition of wild-type human partial length MUSK (M553 to V869 residues) expressed in bacterial expression system assessed as residual activity at 50 nM by Kinomescan method relative to control
[13] = biological target: RAC-alpha serine/threonine-protein kinase (Homo sapiens) (UniProt P31749); assay: Inhibition of wild-type human partial length AKT1 expressed in bacterial expression system assessed as residual activity at 50 nM by Kinomescan method relative to control
[14] = biological target: Phosphorylase b kinase gamma catalytic chain, liver/testis isoform (Homo sapiens) (UniProt P15735); assay: Inhibition of wild-type human partial length PHKG2 (M1 to W300 residues) expressed in bacterial expression system assessed as residual activity at 50 nM by Kinomescan method relative to control
[15] = biological target: Wee1-like protein kinase (Homo sapiens) (UniProt P30291); assay: Inhibition of wild-type human partial length WEE1 (M291 to K575 residues) expressed in bacterial expression system assessed as residual activity at 50 nM by Kinomescan method relative to control
[16] = biological target: Tyrosine-protein kinase TXK (Homo sapiens) (UniProt P42681); assay: Inhibition of wild-type human partial length TXK (L238 to W527 residues) expressed in bacterial expression system assessed as residual activity at 50 nM by Kinomescan method relative to control
[17] = biological target: Phosphatidylinositol 5-phosphate 4-kinase type-2 beta (Homo sapiens) (UniProt P78356); assay: Inhibition of wild-type human full length PIP5K2B (M1 to T416 residues) expressed in bacterial expression system assessed as residual activity at 50 nM by Kinomescan method relative to control
[18] = biological target: Macrophage colony-stimulating factor 1 receptor (Homo sapiens) (UniProt P07333); assay: Inhibition of wild-type human partial length FMS (I564 to S939 residues) expressed in bacterial expression system assessed as residual activity at 50 nM by Kinomescan method relative to control
[19] = biological target: cGMP-dependent protein kinase 1 (Homo sapiens) (UniProt Q13976); assay: Inhibition of wild-type human partial length PKG1 (L339 to F686 residues) expressed in bacterial expression system assessed as residual activity at 50 nM by Kinomescan method relative to control
[20] = biological target: Calcium/calmodulin-dependent protein kinase type II subunit gamma (Homo sapiens) (UniProt Q13555); assay: Inhibition of wild-type human partial length CAMK2G (R9 to A303 residues) expressed in bacterial expression system assessed as residual activity at 50 nM by Kinomescan method relative to control
[21] = biological target: Tyrosine-protein kinase Mer (Homo sapiens) (UniProt Q12866); assay: Inhibition of wild-type human partial length MER (R557 to L884 residues) expressed in bacterial expression system assessed as residual activity at 50 nM by Kinomescan method relative to control
[22] = biological target: Myosin light chain kinase, smooth muscle (Homo sapiens) (UniProt Q15746); assay: Inhibition of wild-type human full length SMMLCK (M854 to E1845 residues) expressed in mammalian expression system assessed as residual activity at 50 nM by Kinomescan method relative to control
[23] = biological target: cAMP-dependent protein kinase catalytic subunit alpha (Homo sapiens) (UniProt P17612); assay: Inhibition of wild-type human partial length PKACA (G10 to F351 residues) expressed in bacterial expression system assessed as residual activity at 50 nM by Kinomescan method relative to control
[24] = biological target: Cyclin-dependent kinase 13 (Homo sapiens) (UniProt Q14004); assay: Inhibition of wild-type human partial length CDC2L5 (H675 to S1054 residues) expressed in mammalian expression system assessed as residual activity at 50 nM by Kinomescan method relative to control
Homo sapiens = species: Homo sapiens; assay: Inhibition of human partial length FLT3 ITD mutant expressed in bacterial expression system assessed as residual activity at 50 nM by Kinomescan method relative to control

Chain of Calcium/calmodulin-dependent protein kinase type II subunit gamma (Homo sapiens) (Q13555 whole entry, the tested form may be a part): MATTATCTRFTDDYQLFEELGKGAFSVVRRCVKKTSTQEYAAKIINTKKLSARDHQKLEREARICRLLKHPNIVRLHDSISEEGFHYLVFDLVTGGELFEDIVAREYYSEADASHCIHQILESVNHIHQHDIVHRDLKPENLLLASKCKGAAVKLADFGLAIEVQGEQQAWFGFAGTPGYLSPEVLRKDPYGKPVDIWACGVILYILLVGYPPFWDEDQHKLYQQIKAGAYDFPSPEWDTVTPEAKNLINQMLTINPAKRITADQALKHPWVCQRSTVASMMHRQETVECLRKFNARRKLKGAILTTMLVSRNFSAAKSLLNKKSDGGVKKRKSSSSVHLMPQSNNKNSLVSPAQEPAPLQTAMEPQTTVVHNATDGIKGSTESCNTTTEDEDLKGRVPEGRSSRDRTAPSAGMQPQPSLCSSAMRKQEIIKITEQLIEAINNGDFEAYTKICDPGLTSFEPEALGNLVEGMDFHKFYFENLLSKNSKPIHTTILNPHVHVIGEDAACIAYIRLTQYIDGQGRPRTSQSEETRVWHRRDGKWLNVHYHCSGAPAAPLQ
Chain of Myosin light chain kinase, smooth muscle (Homo sapiens) (Q15746 whole entry, the tested form may be a part): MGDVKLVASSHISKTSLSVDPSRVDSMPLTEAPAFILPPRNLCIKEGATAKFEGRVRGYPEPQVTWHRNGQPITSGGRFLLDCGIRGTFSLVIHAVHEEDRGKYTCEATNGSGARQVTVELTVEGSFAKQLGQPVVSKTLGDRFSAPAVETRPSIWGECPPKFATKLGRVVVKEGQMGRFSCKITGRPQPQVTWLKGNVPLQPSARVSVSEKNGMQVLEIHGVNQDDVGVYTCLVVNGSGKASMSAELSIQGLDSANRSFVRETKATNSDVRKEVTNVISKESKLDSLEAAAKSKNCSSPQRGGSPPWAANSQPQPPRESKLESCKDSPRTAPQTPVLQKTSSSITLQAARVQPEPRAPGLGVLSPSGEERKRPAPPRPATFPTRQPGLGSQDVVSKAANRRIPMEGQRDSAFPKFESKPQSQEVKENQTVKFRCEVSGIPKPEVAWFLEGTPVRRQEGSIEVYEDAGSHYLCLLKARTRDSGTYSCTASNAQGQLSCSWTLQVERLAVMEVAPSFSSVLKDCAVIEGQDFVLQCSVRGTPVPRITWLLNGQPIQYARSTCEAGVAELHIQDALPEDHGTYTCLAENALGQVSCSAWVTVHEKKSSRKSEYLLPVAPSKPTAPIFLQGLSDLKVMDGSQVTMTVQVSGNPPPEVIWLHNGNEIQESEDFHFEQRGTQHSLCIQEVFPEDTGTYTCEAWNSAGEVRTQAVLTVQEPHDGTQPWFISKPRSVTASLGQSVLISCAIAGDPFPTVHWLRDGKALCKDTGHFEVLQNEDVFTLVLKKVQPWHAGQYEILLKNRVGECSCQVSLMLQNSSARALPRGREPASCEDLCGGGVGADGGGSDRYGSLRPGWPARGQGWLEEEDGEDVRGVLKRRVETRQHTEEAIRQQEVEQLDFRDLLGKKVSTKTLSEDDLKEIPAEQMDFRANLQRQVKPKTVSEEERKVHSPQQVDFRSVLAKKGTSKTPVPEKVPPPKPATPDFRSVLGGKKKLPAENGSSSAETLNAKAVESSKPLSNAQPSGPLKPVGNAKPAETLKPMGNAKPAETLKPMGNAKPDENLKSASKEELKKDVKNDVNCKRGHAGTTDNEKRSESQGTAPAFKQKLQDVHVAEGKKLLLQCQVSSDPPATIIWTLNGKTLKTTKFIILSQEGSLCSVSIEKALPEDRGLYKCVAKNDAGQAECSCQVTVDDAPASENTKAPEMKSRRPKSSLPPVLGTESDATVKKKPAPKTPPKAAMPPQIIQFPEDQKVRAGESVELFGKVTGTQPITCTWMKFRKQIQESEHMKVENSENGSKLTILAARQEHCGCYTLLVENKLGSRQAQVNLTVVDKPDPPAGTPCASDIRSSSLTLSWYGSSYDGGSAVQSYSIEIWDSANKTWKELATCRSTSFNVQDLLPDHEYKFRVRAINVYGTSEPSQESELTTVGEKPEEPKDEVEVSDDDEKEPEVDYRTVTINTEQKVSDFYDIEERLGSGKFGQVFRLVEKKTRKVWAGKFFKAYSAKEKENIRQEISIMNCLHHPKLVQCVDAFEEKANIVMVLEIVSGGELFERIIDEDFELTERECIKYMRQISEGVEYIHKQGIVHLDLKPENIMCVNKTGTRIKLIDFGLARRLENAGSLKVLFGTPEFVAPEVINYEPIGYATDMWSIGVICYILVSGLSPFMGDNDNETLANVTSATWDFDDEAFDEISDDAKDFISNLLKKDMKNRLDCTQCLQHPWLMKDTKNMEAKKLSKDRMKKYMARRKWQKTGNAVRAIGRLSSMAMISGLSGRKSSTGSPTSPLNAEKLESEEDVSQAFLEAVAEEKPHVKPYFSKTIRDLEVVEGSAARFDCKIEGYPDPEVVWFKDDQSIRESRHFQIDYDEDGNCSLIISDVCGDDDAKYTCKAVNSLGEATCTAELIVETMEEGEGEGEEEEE
Chain of Cyclin-dependent kinase 13 (Homo sapiens) (Q14004 whole entry, looked up, the tested form may be a part): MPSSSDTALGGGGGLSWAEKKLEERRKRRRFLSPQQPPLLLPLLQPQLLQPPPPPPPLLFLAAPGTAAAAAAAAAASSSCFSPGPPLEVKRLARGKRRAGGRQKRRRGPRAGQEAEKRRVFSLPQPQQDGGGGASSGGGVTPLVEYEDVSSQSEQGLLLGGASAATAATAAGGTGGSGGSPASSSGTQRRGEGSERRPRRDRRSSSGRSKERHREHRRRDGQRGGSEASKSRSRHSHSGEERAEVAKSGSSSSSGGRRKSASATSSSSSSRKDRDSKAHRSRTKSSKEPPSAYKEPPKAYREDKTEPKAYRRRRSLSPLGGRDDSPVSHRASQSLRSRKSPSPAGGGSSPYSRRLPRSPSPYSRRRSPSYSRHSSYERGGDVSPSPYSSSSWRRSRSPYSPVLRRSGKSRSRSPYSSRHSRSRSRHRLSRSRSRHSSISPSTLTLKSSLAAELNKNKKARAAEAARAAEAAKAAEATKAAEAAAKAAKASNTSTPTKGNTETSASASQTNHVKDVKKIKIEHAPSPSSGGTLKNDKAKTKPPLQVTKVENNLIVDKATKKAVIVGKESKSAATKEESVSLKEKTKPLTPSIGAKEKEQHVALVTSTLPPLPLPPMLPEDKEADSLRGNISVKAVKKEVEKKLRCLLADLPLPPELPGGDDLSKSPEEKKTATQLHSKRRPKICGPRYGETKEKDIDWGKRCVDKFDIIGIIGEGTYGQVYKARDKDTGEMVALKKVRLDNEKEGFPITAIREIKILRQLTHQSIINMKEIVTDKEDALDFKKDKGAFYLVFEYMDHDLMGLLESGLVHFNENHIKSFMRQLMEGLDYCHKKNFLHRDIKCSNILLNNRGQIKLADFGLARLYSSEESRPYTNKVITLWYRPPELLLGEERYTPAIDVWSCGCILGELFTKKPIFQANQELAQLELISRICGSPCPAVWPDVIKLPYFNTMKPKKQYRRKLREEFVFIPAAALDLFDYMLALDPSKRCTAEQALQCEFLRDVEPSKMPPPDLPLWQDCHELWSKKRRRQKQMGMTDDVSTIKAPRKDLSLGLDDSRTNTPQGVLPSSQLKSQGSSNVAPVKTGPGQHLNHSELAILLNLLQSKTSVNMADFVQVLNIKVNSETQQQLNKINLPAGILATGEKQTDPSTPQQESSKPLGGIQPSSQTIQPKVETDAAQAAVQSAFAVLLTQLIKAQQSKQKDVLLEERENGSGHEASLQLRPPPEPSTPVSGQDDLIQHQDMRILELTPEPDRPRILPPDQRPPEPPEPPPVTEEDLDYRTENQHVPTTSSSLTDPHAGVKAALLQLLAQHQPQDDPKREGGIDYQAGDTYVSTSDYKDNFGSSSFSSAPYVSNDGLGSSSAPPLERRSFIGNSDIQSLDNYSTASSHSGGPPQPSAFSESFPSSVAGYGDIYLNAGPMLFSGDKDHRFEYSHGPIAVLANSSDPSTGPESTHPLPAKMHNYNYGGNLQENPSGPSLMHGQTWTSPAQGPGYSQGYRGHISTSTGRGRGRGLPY
Chain of Phosphatidylinositol 5-phosphate 4-kinase type-2 beta (Homo sapiens) (P78356 whole entry, the tested form may be a part): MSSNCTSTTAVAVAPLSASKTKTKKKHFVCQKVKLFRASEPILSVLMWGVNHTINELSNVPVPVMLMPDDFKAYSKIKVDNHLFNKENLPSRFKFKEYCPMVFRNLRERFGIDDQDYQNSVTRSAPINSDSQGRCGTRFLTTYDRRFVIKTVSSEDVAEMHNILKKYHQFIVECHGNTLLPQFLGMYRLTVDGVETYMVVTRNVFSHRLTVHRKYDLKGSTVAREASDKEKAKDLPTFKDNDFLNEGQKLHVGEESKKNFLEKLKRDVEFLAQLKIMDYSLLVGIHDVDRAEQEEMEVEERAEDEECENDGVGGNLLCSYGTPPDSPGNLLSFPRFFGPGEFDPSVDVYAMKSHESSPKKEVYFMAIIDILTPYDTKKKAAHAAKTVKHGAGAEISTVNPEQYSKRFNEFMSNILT
Chain of Tyrosine-protein kinase HCK (Homo sapiens) (P08631 2-526 limits assumed): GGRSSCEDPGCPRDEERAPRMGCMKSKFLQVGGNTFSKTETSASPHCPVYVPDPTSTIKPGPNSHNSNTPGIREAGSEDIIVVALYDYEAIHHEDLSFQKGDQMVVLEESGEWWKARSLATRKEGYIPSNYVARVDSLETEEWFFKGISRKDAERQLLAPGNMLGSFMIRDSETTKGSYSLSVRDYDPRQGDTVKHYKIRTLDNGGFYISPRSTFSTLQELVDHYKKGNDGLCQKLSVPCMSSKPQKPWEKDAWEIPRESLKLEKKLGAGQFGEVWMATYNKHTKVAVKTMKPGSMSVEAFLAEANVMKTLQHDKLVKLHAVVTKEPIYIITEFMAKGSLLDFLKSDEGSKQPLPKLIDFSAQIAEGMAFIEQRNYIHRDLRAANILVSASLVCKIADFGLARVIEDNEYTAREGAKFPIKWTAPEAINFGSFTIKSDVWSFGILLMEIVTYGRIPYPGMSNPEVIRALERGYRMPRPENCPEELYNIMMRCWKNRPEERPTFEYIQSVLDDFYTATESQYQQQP

| Structure (SMILES) | Activity [1] | Activity [2] | Activity [3] | Activity [4] | Activity [5] | Activity [6] | Activity [7] | Activity [8] | Activity [9] | Activity [10] | Activity [11] | Activity [12] | Activity [13] | Activity [14] | Activity [15] | Activity [16] | Activity [17] | Activity [18] | Activity [19] | Activity [20] | other results |
| --- | --- | --- | --- | --- | --- | --- | --- | --- | --- | --- | --- | --- | --- | --- | --- | --- | --- | --- | --- | --- | --- |
| COc1ccc(-c2cc3c(N[C@@H]4CC[C@](C)(N)C4(C)C)c(C(N)=O)cnn3c2)cn1 | 93% | 100% | 96% | 35% | 100% | 100% | 100% | 75% | 100% | 94% | 100% | 90% | 95% | 100% | 100% | 100% | 72% | 74% | 100% | 90% | Activity [21]: 100%; Activity [22]: 87%; Activity [23]: 100%; Activity [24]: 100%; Activity (Homo sapiens): 79% |
| CC1(C)[C@H](Nc2c(C(N)=O)cnn3cc(-c4ccccc4)cc23)CC[C@]1(C)N | 66% | 87% | 63% | 19% | 100% | 100% | 100% | 48% | 100% | 80% | 92% | 43% | 79% | 67% | 97% | 100% | 47% | 57% | 100% | 91% | Activity [21]: 100%; Activity [22]: 100%; Activity [23]: 100%; Activity [24]: 72%; Activity (Homo sapiens): 80% |
